The results in this text go back to patent US7598377B2, “Inhibition of phosphoinositide 3-kinase β” (AstraZeneca AB, priority 2002, dated 2009).

Some results are limits rather than exact numbers.

For series [1], the target named is Fyn (Homo sapiens, UniProt P06241). The series is described as follows: Tyrosine kinase assay by MDS Pharma Services (Panlabs). The format is biochemical.
Series [2] addresses T1, p110δ-PI3K (Homo sapiens, UniProt O00329).
T1 construct: from tissue; host or cells: washed platelets (lysate, immunoprecipitated with anti-p110δ antibody)
In words: In vitro enzyme assay, p110δ immunoprecipitated from platelet lysate (Biological Example 1). The class given is biochemical. The note with it: read-out: IC50 (μM), p110δ-PI3K. How it is done: For each immunoprecipitation, 1 mg of lysate was incubated with an anti-p110α (1 μg), anti-p110β (1 μg), anti-p110δ (1 μg) or anti-PI4 kinase antibody (2-5 μg) and 50 μl of a 50% slurry of protein A beads overnight at 4° C. […] For PI4 kinase assays, protein A beads-immune complexes were also washed twice with lysis buffer, prior to two washes with 1× PI4 kinase assay buffer (20 mM Hepes, pH 7.5, 10 mM MgCl2, 0.3% Triton X-100) and the addition of other assay constituents, as described above. All reactions were terminated by the addition of 100 μl 1 M HCl, 200 μl choloroform/methanol (1:1) and 500 μl 2 M KCl and lipids extracted by centrifugation at 15,000×g for 2 minutes. The production of PI3 or PI4 kinase lipid products, PtdIns(3)P and PtdIns(4)P, were confirmed through TLC analysis. The lipid spots were then removed from the TLC plate and the level of radioactivity quantified to accurately determine the level of PtdIns(3)P/PtdIns(4)P production.

For series [3], the system named is rat tail bleeding time. In words: Tail bleeding studies in rats. The class given is in vivo. How it is done: Rats were anaesthetised with halothane in room air supplemented with O2. Tail bleeding time was measured 15 min before drug administration (−15), and 5 and 30 min after administration. For experiments involving pretreatment with aspirin and clopidogrel, tail bleeding time was also measured before the first gavage dose at −25 h. Incisions 5 mm long and 1 mm deep were made in the tail at each time point and bleeding was monitored every 30 sec until it had ceased (=tail bleeding time).

Series [4] deals with p38α (Homo sapiens, UniProt Q16539). The series is described as follows: Ser/Thr kinase assay by MDS Pharma Services (Panlabs). The format is biochemical.
p38α, sequence (Q16539 whole entry): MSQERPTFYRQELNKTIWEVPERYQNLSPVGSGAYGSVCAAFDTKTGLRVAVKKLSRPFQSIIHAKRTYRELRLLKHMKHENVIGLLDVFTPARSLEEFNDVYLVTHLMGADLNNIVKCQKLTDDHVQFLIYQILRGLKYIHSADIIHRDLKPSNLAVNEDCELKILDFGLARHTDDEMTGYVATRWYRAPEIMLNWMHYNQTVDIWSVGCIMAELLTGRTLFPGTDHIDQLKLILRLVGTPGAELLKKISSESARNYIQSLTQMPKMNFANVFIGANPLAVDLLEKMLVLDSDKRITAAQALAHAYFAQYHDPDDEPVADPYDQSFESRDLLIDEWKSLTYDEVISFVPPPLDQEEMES
Series [5] relates to carotid artery occlusive thrombus formation in rabbits. In words: Modified Folts model in rabbits. The format is in vivo, New Zealand White rabbits. The procedure: Studies were approved by the University of Melbourne Animal Ethics Committee in accordance with the guidelines of the National Health & Medical Research Council of Australia. Anaesthesia was induced in Sprague-Dawley rats (260-400 g) with sodium pentobarbitone (Nembutal; 60 mg/kg i.p.; Merial Australia Pty. Ltd., Sydney, NSW, Australia), and in New Zealand White rabbits (2-3 kg) with pentobarbitone (15 mg/kg i.v.) and fentanyl (6 μg/kg i.v.; David Bull Laboratories, Mulgrave, VIC, Australia). Animals were mechanically ventilated (Ugo Basile ventilator, Comerio, VA, Italy) with room air supplemented with O2. Body temperature was maintained throughout the experiment. Arterial blood pressure was measured via a femoral artery catheter connected to a pressure transducer (Model 1050.1, AD Instruments, Sydney, NSW) and a blood flow probe (1 mm i.d. for rats & 2.5 mm i.d. for rabbits; flowmeter […], Transonic Systems Inc., Ithaca, N.Y., USA) was placed around each (control and test) carotid artery; all parameters were recorded on a PowerLab data acquisition system (8SP; AD Instruments). A silk suture was tied loosely around 1 artery, distal to the flow probe, for subsequent stenosis. […] Carotid blood flow was monitored until it reached 0 ml/min, indicating a clot had formed at the site of stenosis. […] Again, carotid blood flow was monitored until it reached 0 ml/min, and the time recorded. […]

In series [6] the test system is washed platelets. The series is described as follows: Shear-induced platelet aggregation (cone & plate device, single platelet count). The class given is cell-based. The note with it: 5 min, vWf 10 μg/ml, 5000 s^−1 for 5 min, read-out: inhibition of shear induced platelet aggregation, IC50. The source says: Platelet samples were aspirated and the level of platelet aggregation determined by analyzing the number of unincorporated single platelets using a […] hematology analyzer. All data were normalized to control experiments and expressed as the proportional increase relative to control samples.

In series [7] the target is Casein Kinase 2 (Homo sapiens, UniProt P68400). In words: Ser/Thr kinase assay by MDS Pharma Services (Panlabs). The format is biochemical.
Casein Kinase 2, sequence (P68400 whole entry): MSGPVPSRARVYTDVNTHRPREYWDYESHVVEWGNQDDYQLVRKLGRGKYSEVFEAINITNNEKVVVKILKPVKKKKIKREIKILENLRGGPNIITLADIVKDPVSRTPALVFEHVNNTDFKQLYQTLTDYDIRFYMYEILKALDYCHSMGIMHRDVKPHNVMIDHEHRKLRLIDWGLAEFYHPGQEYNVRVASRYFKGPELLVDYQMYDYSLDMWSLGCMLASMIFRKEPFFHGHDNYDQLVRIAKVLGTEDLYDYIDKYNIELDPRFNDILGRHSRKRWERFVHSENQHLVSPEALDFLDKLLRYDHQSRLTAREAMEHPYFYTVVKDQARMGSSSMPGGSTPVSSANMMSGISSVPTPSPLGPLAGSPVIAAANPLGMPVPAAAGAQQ
Series [8] has as its target p70^S6 (Homo sapiens, UniProt P23443). Described as above. The format is biochemical.
Series [9] relates to PI 3-kinase lipid products in platelets. In words: Shear-induced PI 3-kinase lipid products in platelets (cone & plate device, HPLC). The format is cell-based.
Protocol: Measurements of the lipid products PtdIns(4,5)P2 and PtdIns(3,4)P2 in intact platelets were performed by initially isolating lipids by HPLC and identifying lipid peaks using defined PtdIns(4,5)P2 and PtdIns(3,4)P2 standards. Lipids were integrated and normalized to total lipid applied and expressed as a fraction of untreated (control) samples.
For this assay, whole blood was collected in the presence of anti-coagulant [6 volumes blood to 1 volume anticoagulant (90 mM sodium citrate, 7 mM citric acid, pH 4.6, 140 mM dextrose and 70 mM theophylline)] and platelets isolated and washed using a modified method of Baezinger and Majerus (1974). Briefly, platelet-rich plasma (PRP) was obtained by centrifugation of whole blood at 200×g for 30 minutes. Platelets were then pelleted by centrifugation of the PRP at 2,000×g for 10 minutes. The platelet pellet was resuspended in platelet washing buffer (PWB) [4.3 mM K2HPO4, 4.3 mM Na2HPO4, 24.3 mM NaH2PO4, pH 6.5, 113 mM NaCl, 5.5 mM glucose, 0.5% bovine serum albumin (BSA) and 10 mM theophylline]. […] Lipid peaks co-eluting with commercially available PtdIns(3,4)P2 and PtdIns(4,5)P2 standards were integrated and normalized to total lipid applied and expressed as a fraction of control samples.
Series [10] relates to platelets on immobilized vWf. In words: In vitro flow studies: platelet calcium flux and adhesion on immobilized vWf. The format is cell-based. How it is done:
The use of an in vitro-flow based adhesion assay enables us to simultaneously analyze platelet adhesion dynamics and activation (by monitoring cytosolic calcium flux) on immobilized von Willebrand factor (vWf). Briefly, isolated platelets are perfused through vWf (100 μg/ml) coated microcapillary tubes and analysis of cytosolic calcium flux conducted in real-time by confocal microscopy.
Washed platelets (1.5×10^9) suspended in PWB were incubated with the calcium indicator dyes, Oregon Green 488 BAPTA-1, AM (1 μM) and Fura Red, AM (1.25 μM), for 30 min at 37° C. Platelets were washed twice with PWB prior to being resuspended in Tyrode's buffer containing 1 mM calcium.
For static adhesion assays, platelets were allowed to settle on the surface of vWf-coated coverslips for 30 min at 37° C. For flow assays, platelets were either perfused over a vWf-coated microcapillary tube at a constant shear rate of 600, 1800 or 10,000 s^−1 or allowed to settle on the surface of a vWf-coated microcapillary tube prior to being accelerated through a shear gradient of 10,000 s^−1 over a 1 s interval. Real time platelet calcium flux in individual platelets was monitored at 1 s intervals over the 30 min incubation period or at 0.586 s intervals for up to 175 s for static and flow-based assays, respectively.
(In general: Calcium flux is commonly read through the fluorescence of an indicator in the cells.)

Series [11] deals with CaMK. In words: Ser/Thr kinase assay by MDS Pharma Services (Panlabs). The class given is biochemical.

p70^S6, sequence (P23443 24-525 limits assumed): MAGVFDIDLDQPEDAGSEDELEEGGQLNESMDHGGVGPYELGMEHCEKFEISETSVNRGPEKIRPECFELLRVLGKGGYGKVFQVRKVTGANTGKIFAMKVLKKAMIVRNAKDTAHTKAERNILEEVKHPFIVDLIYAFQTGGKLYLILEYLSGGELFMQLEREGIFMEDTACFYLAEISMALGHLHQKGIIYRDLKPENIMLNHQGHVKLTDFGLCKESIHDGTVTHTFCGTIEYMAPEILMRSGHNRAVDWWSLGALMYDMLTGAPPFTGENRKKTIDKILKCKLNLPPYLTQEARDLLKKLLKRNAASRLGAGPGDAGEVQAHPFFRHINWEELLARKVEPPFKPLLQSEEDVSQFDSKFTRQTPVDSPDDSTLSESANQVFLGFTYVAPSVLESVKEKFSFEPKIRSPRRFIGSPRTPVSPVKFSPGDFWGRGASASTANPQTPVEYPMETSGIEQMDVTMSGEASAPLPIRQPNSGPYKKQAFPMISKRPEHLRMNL
T1 sequence (O00329 whole entry): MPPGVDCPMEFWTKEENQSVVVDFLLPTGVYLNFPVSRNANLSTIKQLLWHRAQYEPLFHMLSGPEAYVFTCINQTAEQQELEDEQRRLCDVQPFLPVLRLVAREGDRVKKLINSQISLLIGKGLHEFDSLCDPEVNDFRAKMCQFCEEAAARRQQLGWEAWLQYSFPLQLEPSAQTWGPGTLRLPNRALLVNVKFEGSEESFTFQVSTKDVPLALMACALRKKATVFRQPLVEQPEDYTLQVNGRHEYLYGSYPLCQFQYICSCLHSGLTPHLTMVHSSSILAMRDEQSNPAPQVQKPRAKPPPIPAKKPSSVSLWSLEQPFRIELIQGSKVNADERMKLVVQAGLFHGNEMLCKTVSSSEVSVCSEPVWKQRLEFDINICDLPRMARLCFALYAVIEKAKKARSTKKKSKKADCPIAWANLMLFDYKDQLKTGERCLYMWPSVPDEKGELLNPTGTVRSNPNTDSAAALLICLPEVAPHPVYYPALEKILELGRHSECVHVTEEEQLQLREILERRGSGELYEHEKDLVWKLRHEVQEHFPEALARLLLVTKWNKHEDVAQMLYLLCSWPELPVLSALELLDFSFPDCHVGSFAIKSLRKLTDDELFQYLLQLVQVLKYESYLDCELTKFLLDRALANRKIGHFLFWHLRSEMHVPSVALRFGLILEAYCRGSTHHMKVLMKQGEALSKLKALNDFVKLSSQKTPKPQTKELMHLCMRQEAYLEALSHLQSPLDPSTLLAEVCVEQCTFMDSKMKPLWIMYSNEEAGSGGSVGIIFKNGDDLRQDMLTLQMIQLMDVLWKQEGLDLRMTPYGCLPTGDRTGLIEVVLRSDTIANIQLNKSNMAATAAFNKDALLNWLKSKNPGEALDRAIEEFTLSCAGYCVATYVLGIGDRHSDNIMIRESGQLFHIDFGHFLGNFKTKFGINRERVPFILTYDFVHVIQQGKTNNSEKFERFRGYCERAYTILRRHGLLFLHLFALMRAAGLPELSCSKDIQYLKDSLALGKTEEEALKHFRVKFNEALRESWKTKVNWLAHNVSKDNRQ
T1 sequence (P27986 whole entry partner): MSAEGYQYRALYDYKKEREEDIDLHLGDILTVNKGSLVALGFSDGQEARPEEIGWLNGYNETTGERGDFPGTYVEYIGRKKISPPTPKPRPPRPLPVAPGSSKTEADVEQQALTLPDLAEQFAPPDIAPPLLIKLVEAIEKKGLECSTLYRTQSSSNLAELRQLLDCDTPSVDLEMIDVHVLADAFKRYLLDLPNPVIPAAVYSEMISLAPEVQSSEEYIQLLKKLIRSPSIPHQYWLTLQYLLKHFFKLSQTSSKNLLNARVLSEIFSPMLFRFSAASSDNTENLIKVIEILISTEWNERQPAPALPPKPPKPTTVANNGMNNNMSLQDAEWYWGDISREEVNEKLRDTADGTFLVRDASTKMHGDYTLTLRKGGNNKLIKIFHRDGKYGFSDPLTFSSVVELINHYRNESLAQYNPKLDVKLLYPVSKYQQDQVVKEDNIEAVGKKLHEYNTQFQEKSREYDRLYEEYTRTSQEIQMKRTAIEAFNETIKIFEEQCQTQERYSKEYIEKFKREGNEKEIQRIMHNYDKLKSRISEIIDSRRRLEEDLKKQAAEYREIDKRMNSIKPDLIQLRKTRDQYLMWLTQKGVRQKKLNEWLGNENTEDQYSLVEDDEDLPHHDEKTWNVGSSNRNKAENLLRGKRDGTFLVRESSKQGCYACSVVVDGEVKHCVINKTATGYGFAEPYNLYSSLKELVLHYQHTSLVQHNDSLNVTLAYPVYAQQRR
Fyn, sequence (P06241 whole entry, species assumed): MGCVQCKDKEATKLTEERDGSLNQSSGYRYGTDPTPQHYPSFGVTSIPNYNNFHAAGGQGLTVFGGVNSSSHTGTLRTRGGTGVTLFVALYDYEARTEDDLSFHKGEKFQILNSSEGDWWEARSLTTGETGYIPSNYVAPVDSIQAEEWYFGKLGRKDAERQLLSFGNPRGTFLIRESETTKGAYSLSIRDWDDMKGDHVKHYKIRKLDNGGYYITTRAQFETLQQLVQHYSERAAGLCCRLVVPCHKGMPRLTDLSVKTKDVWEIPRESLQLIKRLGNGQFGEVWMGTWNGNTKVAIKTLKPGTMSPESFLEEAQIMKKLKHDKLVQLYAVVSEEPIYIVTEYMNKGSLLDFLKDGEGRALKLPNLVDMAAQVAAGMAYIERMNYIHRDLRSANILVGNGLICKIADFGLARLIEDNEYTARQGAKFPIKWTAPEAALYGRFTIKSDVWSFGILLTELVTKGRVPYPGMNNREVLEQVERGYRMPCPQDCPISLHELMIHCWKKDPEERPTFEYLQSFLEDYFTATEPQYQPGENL

Broadly, the IC50 is the concentration that gives 50% inhibition. With `Cc1cc(C(C)Nc2ccccc2)c2nc(N3CCOCC3)cc(=O)n2c1` (racemic) [TGX-221, (±)-7-methyl-2-morpholin-4-yl-9-(1-phenylaminoethyl)-pyrido[1,2-a]pyrimidin-4-one], the half-inhibitory concentration (IC50) was above 10 µM in [1]; 0.1 µM in series [2]; above 10 µM in series [4]; 0.05 to 0.1 µM in [6]; above 10 µM in series [7]; above 10 µM in series [8]. The IC50 in [11] is above 10 µM. Also, the bleeding time entry was “did not affect bleeding time” in series [3] (TGX-221 2 mg/kg i.v. in combination with either clopidogrel or aspirin) and “did not increase bleeding time” in [3] (administered at >20 fold the minimum therapeutic concentration). For the same molecule, the “prolonged bleeding time caused by co-administered agents” value in series [3] (TGX-221 2 mg/kg i.v. with aspirin 200 mg/kg p.o.+heparin 100 U/kg i.v.) and in series [3] (TGX-221 2 mg/kg i.v. with clopidogrel 10 mg/kg p.o.+heparin 100 U/kg i.v.) was “did not exacerbate” each time. The “rat tail bleeding time” value in series [3] (TGX-221 20 mg/kg i.v. alone) and in series [3] (TGX-221 20 mg/kg i.v. with heparin 100 U/kg i.v.) was “unaffected” throughout. The “normal haemostasis as assessed by tail or ear bleeding times” value in series [3] (in words) is listed as “did not adversely impact”. The “animals in which occlusive thrombus formation was immediately abolished” value in [5] (2 mg/kg i.v. bolus) is listed as 100%. In addition, the occlusive thrombus formation result in series [5] (2 mg/kg, in words) was “completely prevented”. Moreover, in series [9] (in words), the “cellular levels of conventional phosphoinositides PtdIns, PtdIns(4)P and PtdIns(4,5)P2” value is “without altering”. In addition, the “PI 3-kinase lipid generation” value in series [9] (shear 5000 s^−1, in words) is reported as “selectively inhibited PI 3-kinase lipid generation”. For the same molecule, in [10] (0.5 μM), the “γ-independent GPIb calcium signalling” value is listed as “did not inhibit”. The “platelet responses to accelerated shear” value in series [10] (vWf matrix, shear rate gradient up to 10,000 s^−1 over 1 s) is on record as “Eliminates Platelet Responses to Accelerated Shear”.
